By IC50 is commonly meant the concentration needed to halve the response being measured. A low value points to higher potency.

Here are results for six compounds from publication PMC9789325, “Inhibition kinetics, molecular docking, and stability studies of the effect of papain-generated peptides from palm kernel cake proteins on angiotensin-converting enzyme (ACE)” (Food Chemistry: Molecular Sciences, 2022).

The target of data set [1] is T1, angiotensin-I-converting enzyme from rabbit lung (Oryctolagus cuniculus, UniProt P12822).
T1 construct: the angiotensin-I-converting enzyme from rabbit lung (2 units/mg protein); purchased Sigma Chemical Co. (St. Louis, MO, USA); host or cells: rabbit lung (tissue-derived)
T1 sequence (P12822 34-1310): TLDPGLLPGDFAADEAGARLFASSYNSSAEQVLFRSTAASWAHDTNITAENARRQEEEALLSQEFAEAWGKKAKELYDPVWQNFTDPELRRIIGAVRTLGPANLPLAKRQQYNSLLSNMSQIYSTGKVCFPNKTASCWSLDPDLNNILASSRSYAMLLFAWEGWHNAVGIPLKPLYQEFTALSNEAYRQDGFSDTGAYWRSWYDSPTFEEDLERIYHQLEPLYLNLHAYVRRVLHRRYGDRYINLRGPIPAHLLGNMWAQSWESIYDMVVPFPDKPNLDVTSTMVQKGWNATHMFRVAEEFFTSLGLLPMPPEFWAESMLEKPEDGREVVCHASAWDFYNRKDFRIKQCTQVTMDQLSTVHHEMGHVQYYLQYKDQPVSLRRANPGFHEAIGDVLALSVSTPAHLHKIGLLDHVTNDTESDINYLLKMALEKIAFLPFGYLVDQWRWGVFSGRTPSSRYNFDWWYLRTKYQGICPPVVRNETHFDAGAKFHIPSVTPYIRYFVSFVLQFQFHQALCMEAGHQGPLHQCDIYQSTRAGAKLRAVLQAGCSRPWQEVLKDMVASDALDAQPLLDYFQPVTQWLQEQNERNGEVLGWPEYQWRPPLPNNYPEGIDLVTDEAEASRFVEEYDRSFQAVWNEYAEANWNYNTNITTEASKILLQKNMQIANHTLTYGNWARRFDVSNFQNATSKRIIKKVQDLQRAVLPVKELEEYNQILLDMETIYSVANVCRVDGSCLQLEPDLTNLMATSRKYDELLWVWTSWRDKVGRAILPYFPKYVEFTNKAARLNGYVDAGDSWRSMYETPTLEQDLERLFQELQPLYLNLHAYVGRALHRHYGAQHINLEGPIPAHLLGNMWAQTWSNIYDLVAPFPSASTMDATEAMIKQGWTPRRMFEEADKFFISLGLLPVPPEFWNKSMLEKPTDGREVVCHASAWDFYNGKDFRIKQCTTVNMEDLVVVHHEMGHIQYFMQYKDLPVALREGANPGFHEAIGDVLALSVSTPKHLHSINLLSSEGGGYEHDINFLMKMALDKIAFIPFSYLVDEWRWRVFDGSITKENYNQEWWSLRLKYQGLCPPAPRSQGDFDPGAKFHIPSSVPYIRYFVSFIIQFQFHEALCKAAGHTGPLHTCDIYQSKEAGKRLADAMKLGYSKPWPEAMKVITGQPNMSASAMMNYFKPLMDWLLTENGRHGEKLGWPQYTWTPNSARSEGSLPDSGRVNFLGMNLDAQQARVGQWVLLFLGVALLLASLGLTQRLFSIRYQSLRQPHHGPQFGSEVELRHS
Put plainly: ACE inhibitory activity evaluation (HHL substrate, hippuric acid read at 410 nm). In kind it is biochemical. Particulars: for ACE inhibitory activity (%): Table 5; for ACE-inhibitory capacity (%) With pre-incubation: with pre-incubation with ACE (3 h); for ACE-inhibitory capacity (%) Without pre-incubation: without pre-incubation with ACE. As to the method:
ACE inhibitory potency of peptides was determined following the method described by [Forghani et al. (2016)]. […] The mixture was incubated with Hippuryl-histidyl-leucine (HHL) solution (50 μL) containing 0.1 M borate buffer pH 8.3 and 0.3 M NaCl at 37 °C for 60 min. To terminate the enzymatic reaction, 75 μL of 1 M HCl was added to the mixture. Subsequently 150 μL of pyridine were layered followed by addition of 75 μL of benzenesulfonyl chloride, and the mixture was vortexed for 1 min before being cooled on ice. The absorbance was recorded at 410 nm using a micro plate reader (Labomed, model UVD-2950, USA Power Wave X 340, Biotek Instruments. Inc.,Winooski, VT, USA). The standard curve of hippuric acid (HA) was constructed by plotting absorbance versus _mol of HA produced in 1 mL of reaction volume.

In data set [2] the target is T2, ACE (Oryctolagus cuniculus, UniProt P12822).
T2 construct: the angiotensin-I-converting enzyme from rabbit lung (2 units/mg protein); purchased Sigma Chemical Co. (St. Louis, MO, USA); host or cells: rabbit lung (tissue-derived)
T2 sequence (P12822 34-1310): T1 sequence (P12822 34-1310)
Briefly: Kinetics study of ACE inhibition (Lineweaver-Burk / Michaelis-Menten, HHL 15 to 4000 µM). The note with it: from plot of 1/Vmax against inhibitor concentration; read-out: Kiu (enzyme-inhibitor dissociation constant). In kind it is biochemical, rabbit. How it is done: To determine the mode of enzyme inhibition, Lineweaver-Burk plots of 1/v versus 1/[S] were used. ACE inhibition was determined in the presence of five concentrations of HHL from 15 to 4000 µM and four concentrations of peptides, as shown in Table 1.
Enzyme activity was expressed as nmol hippuric acid produced per min of enzymatic reaction. Kiu was calculated from the plot of 1/Vmax against inhibitor concentration at the intercept on the inhibitor concentration axis ([Cornish-Bowden, 2013]). Vmax and Km were calculated using GRAPHPAD PRISM 5 (GraphPad, Software Inc., San Diego, CA). Michaelis-Menten and Lineweaver-Burk plots were also created using the same software.

Data set [3] deals with T2, ACE. Put plainly: Effect of ACE on papain-generated peptides: hydrolysis of peptides by ACE followed by RP-HPLC. Particulars: for degradation of the peptide by ACE (in words): after up to 3 h pre-incubation with ACE; for Peaks: number of RP-HPLC peaks; for percentage of peptide cleavage by ACE: over the whole incubation period (0.5 to 3 h); for metabolised at 1 h / metabolised at 2 h / metabolised at 3 h / metabolised at 0.5 h: rabbit, isolated ACE (angiotensin-converting enzyme) solution, read-out: Cleavage (%). Type of data set: in vitro ADME, rabbit. How it is done: The effect of ACE on papain-generated peptides was analyzed following the method of [Yang et al. (2003)] with some modifications. Briefly, 225 µL of the peptide solution of YGIKVGYAIP,
GGIF, GIFE at concentrations of 2, 4, and 4 mM were separately incubated with 150 µL of ACE (100 mU/mL) at 37 °C. Samples were withdrawn at incubation times of 0, 0.5, 1, 2, and 3 h and kept on ice prior to analysis by HPLC. A 20-µl sample was loaded onto a Hypersil GOLD C18 column (4.6×250 mm) attached to a Shimadzu (Kyoto, Japan) LC 20AT apparatus. The column was conditioned with eluent A (0.1 % TFA in DI) and eluted with 100 % eluent A from 0 to 10 min. The peptides were eluted with eluent B (0.1 % TFA in CH3CN) with a gradient elution of 0–100 % for 10–50 min. The absorbance was read at 215 nm.
To evaluate the possible degrading effects of ACE on the bioactive peptides generated from palm kernel cake proteins prior to examining their inhibitory activity, the peptides were preincubated with ACE in a water bath shaker at 37 °C for 0.5 h, 1 h, 2 h and 3 h, and the resulting peptides were analyzed using RP-HPLC.

Data set [4] deals with ACE. Particulars: literature peptides, read-out: Kiu, cited from earlier work.
[5] abbreviates: incubation with ACE (100 mU/mL) 37 °C, 0.5 h, peptide 2 mM (YGIKVGYAIP), 4 mM (GGIF, GIFE).

“Also recorded” adds a separate entry of the source. Like-named read-outs stand apart in the source and are kept apart here. Residues, ends and D or L forms follow the SMILES beside them. No end group written: not given here.

Regarding `CC[C@H](C)[C@H](NC(=O)CNC(=O)CN)C(=O)N[C@@H](Cc1ccccc1)C(=O)O` [GGIF] (H-GGIF-OH; N-terminus and C-terminus assumed), in data set [1], half-maximal inhibition (IC50) required 92 µM, the “ACE inhibitory activity (%)” value was 97 ± 2.17%, the “ACE-inhibitory capacity (%) With pre-incubation” value turned out to be 87 ± 2.70% and the “ACE-inhibitory capacity (%) Without pre-incubation” value is recorded as 97 ± 2.18%. Further, the Ki in data set [2] is 1270 µM. Besides, in data set [3], the “degradation of the peptide by ACE (in words)” value (shortened to “degradation of the peptide”) was “resistant to ACE; also recorded: resistant and were not degraded”; the “percentage of peptide cleavage by ACE” value is given as “approximately 1.5%”. In addition, in data set [3] (incubation with ACE 37 °C, 1 h), the Peaks was found to be 1 and the metabolised at 1 h came to 1 ± 0.2%. Besides, in data set [3] (incubation with ACE 37 °C, 2 h), the Peaks was 1 and the metabolised at 2 h worked out at 1 ± 0.4%. Also, in data set [3] (incubation with ACE 37 °C, 3 h), the Peaks was 1 and the metabolised at 3 h was found to be 2 ± 0.6%. Moreover, in data set [3] (setting [5]), the Peaks worked out at 1 and the metabolised at 0.5 h worked out at 1 ± 0.1%.

As for `CC[C@H](C)[C@H](NC(=O)CN)C(=O)N[C@@H](Cc1ccccc1)C(=O)N[C@@H](CCC(=O)O)C(=O)O` [GIFE] (H-GIFE-OH; N-terminus and C-terminus assumed), in data set [1], the “ACE inhibitory activity (%)” value stood at 40 ± 1.00%, the “ACE-inhibitory capacity (%) With pre-incubation” value turned out to be 43 ± 1.80% and the “ACE-inhibitory capacity (%) Without pre-incubation” value stood at 40 ± 1.00%. Moreover, the Ki in data set [2] turned out to be 18000 µM. For the same compound, in data set [3], the “degradation of the peptide” value is “resistant; also recorded: resistant and were not degraded”; the “percentage of peptide cleavage by ACE” value was around 0%. Also, in data set [3] (incubation with ACE 37 °C, 1 h), the Peaks is 1 and the metabolised at 1 h amounted to 0%. Besides, in data set [3] (incubation with ACE 37 °C, 2 h), the Peaks is 1 and the metabolised at 2 h was 0%. In addition, in data set [3] (incubation with ACE 37 °C, 3 h), the Peaks is listed as 1 and the metabolised at 3 h came to 0%. Moreover, in data set [3] (setting [5]), the Peaks was 1 and the metabolised at 0.5 h is 0%.

Consider RALP, for which the Ki in data set [4] (ref He, Aluko & Ju (2014)) was 104 µM.

As to WVYY, the Ki in data set [4] (ref Girgih, He & Aluko (2014)) is 60 µM.

Take WYT: the Ki in data set [4] (ref Girgih, He & Aluko (2014)) was 1830 µM.

Take YGIKVGYAIP [YGIKVGYAIP]: in data set [1], the midpoint of inhibition, the IC50, lay at 1 µM; the “ACE inhibitory activity (%)” value worked out at 100 ± 3.00%; the “ACE-inhibitory capacity (%) With pre-incubation” value was found to be 93 ± 2.40%; the “ACE-inhibitory capacity (%) Without pre-incubation” value is given as 100 ± 3.00%. The Ki in data set [2] was 54 µM. The “degradation of the peptide” value in data set [3] is on record as “degraded; also recorded: not resistant to ACE”. For the same compound, in data set [3] (incubation with ACE 37 °C, 1 h), the Peaks is 5 and the metabolised at 1 h is 84 ± 1.6%. For the same compound, in data set [3] (incubation with ACE 37 °C, 2 h), the “Cleavage (%)” value worked out at 95%, the Peaks is recorded as 5 and the metabolised at 2 h turned out to be 95 ± 3.2%. Besides, in data set [3] (setting [5]), the “Cleavage (%)” value turned out to be 70%, the Peaks was determined as 5 and the metabolised at 0.5 h came to 70 ± 2.2%. Further, in data set [3] (incubation with ACE 37 °C, 3 h), the metabolised at 3 h turned out to be 98 ± 3.1%.
